This is an account of results in patent US12162858B2, “Quinoline derivatives as inhibitors of AXL/MER RTK and CSF1R” (QURIENT CO., LTD., priority 2018, dated 2024).

As usually defined, the Kd is a measure of binding affinity in units of concentration.

Molecules are shown by their SMILES.

For the assay, the target named is T1, Axl (Homo sapiens, UniProt P30530).
T1 sequence (P30530 26-894): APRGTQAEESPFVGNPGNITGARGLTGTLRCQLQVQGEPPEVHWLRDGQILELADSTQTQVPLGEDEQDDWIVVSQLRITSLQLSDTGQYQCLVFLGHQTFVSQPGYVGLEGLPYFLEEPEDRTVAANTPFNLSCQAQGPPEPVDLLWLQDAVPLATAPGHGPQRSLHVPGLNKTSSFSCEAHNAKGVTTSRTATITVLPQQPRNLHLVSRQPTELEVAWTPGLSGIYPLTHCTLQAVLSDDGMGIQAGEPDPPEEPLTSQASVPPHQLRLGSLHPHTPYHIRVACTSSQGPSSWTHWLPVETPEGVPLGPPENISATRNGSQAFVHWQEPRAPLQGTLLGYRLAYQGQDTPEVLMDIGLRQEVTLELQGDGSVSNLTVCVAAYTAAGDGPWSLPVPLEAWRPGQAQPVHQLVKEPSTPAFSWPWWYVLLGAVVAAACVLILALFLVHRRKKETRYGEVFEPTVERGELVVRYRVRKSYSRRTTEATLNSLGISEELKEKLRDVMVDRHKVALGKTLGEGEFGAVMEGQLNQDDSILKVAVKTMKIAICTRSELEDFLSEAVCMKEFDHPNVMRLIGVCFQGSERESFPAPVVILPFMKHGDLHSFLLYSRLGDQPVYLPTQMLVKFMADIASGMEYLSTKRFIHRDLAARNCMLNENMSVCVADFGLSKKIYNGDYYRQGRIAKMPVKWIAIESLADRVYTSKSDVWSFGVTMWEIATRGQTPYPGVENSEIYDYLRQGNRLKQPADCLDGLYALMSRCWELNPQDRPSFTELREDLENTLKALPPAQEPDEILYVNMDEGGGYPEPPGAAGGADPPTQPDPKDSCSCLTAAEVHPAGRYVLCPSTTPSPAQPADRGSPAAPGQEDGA
Description: LanthaScreen Eu kinase binding assay for Axl. The note with it: read-out: Axl kinase binding activity (Kd). The protocol:
LanthaScreen® Eu Kinase Binding assays were conducted at Life Technologies using the manufacturer's specifications for each kinase indicated.
Briefly, the principle behind this assay is based upon the binding and displacement of an Alexa Fluor 647-labeled tracer to the kinase of interest. Binding of the tracer to the kinase is detected using an EU-labeled anti-tag antibody. Simultaneous binding of both the tracer and antibody to the kinase gives rise to a FRET-signal. Binding of an inhibitor to the kinase competes for binding with the tracer, resulting in a loss of FRET-signal.
A given compound was diluted in DMSO to make a stock compound solution. The stock compound solution was serially diluted over eight steps in DMSO. Each diluted compound solution in DMSO was diluted in kinase buffer. Afterwards four kinds of working solution were prepared. First, Tracer-Working solution consists of Tracer 236 and Kinase Buffer. Second, Axl, Mer, Tyro3 or Met/anti-GST-AB-Working solution contained one of the kinases Axl, and Mer or anti-GST-AB (=anti glutathione-S-transferase antibody) in Kinase Buffer. Third, anti-GST-AB-Working solution was made with anti-GST-AB and Kinase Buffer. Last, in the DMSO-Working solution DMSO was added to Kinase Buffer to a final concentration to 3%. Each of the four kinds of working solutions were separately added to the assay plate and then incubated for 1 h at room temperature. After incubation, the assay plate was measured with respect to the FRET-Signal with the EnVision (Perkin Elmer) using the program LanthaHTRF-Assay. Data evaluation was done in the Quattro Workflow software. Kd (the equilibrium dissociation constant) values were calculated relative to vehicle (DMSO) control wells.
Background: TR-FRET usually uses a lanthanide donor and a delayed reading to cut background.
Consider `CCn1nc(C(=O)Nc2ccc(Oc3ccnc4cc(OC)c(OC)cc34)cn2)c(OCC(F)(F)F)c1C` [Compound 1], for which the Kd was less than 100 nM.

As for `COc1cc2nccc(Oc3ccc(NC(=O)c4nn(C(C)C)c(C)c4OCC(F)(F)F)nc3)c2cc1OC` [Compound 2], the Kd is less than 100 nM.

As for `COc1cc2nccc(Oc3ccc(NC(=O)c4nn(C5CC5)c(C(C)=O)c4OCC(F)(F)F)nc3)c2cc1OC` [Compound 3], the Kd was less than 100 nM. Turning to `COc1cc2nccc(Oc3ccc(NC(=O)c4nn(C5CCOC5)cc4OCC(F)(F)F)nc3)c2cc1OC` (stereo not shown) [Compound 13], the equilibrium dissociation constant (Kd) is less than 100 nM. With `CCCn1cc(OCCF)c(C(=O)Nc2ccc(Oc3ccnc4cc(OC)c(OC)cc34)cn2)n1` [Compound 14] the figure was less than 100 nM; with `COc1cc2nccc(Oc3ccc(NC(=O)c4nn(CC(C)=O)cc4OCC(F)(F)F)nc3)c2cc1OC` [Compound 19], less than 100 nM; with `CCC(=O)n1cc(OCC(F)(F)F)c(C(=O)Nc2ccc(Oc3ccnc4cc(OC)c(OC)cc34)cn2)n1` [Compound 20], less than 100 nM. With `COc1cc2nccc(Oc3ccc(NC(=O)c4nn(CC(C)C)cc4OCC(F)(F)F)nc3)c2cc1OC` [Compound 21] the figure was less than 100 nM; with `COc1cc2nccc(Oc3ccc(NC(=O)c4nn(C(C)(C)C)cc4OCC(F)(F)F)nc3)c2cc1OC` [Compound 22], less than 100 nM; with `CCCn1cc(NCC(F)(F)F)c(C(=O)Nc2ccc(Oc3ccnc4cc(OC)c(OC)cc34)cn2)n1` [Compound 23], less than 100 nM. Then `COc1cc2nccc(Oc3ccc(NC(=O)c4nn(C5CCC5)cc4OCC(F)(F)F)nc3)c2cc1OC` [Compound 24], with less than 100 nM; and `CCCn1cc(OCC(F)(F)F)c(C(=O)Nc2ccc(Oc3ccnc4cc(OC)c(OC)cc34)c(F)c2)n1` [Compound 25], with less than 100 nM. Take `CCCn1cc(OCC(F)(F)F)c(C(=O)Nc2ccc(Oc3ccnc4cc(OC)c(OC)cc34)c(C)c2)n1` [Compound 26]: the equilibrium dissociation constant (Kd) is less than 100 nM. With `CCCn1cc(OCC(F)(F)F)c(C(=O)Nc2ccc(Oc3ccnc4cc(OC)c(OC)cc34)cc2C)n1` [Compound 27] the figure was less than 100 nM. With `CCCn1cc(OCC(F)(F)F)c(C(=O)Nc2ccc(Oc3ccnc4cc(OC)c(OC)cc34)cc2F)n1` [Compound 28] the figure was less than 100 nM; with `CCCn1cc(OCCC(F)(F)F)c(C(=O)Nc2ccc(Oc3ccnc4cc(OC)c(OC)cc34)cn2)n1` [Compound 31], less than 100 nM. Then `CCCn1cc(OCC(F)(F)F)c(C(=O)Nc2ccc(Oc3ccnc4cc(OC)c(OC)cc34)nn2)n1` [Compound 32], with less than 100 nM; and `COc1cc2nccc(Oc3ccc(NC(=O)c4nn(C)cc4OCC(F)(F)F)nc3)c2cc1OC` [Compound 33], with less than 100 nM; and `CCCn1cc(N(C)CC2CCOCC2)c(C(=O)Nc2ccc(Oc3ccnc4cc(OC)c(OC)cc34)cn2)n1` [Compound 34], with no less than 500 nM.

For `CCCCn1cc(OCC(F)(F)F)c(C(=O)Nc2ccc(Oc3ccnc4cc(OC)c(OC)cc34)cn2)n1` [Compound 36], the Kd is less than 100 nM. Then `COc1cc2nccc(Oc3ccc(NC(=O)c4nn(C)cc4OCC(F)(F)F)cc3C)c2cc1OC` [Compound 37], with 100 to 500 nM; and `CCCn1cc(OCC(F)(F)F)c(C(=O)Nc2ccc(Oc3ccnc4cc(OC)c(OC)cc34)cc2)n1` [Compound 38], with less than 100 nM. Then `COc1cc2nccc(Oc3ccc(NC(=O)c4nn(CCC#N)cc4OCC(F)(F)F)nc3)c2cc1OC` [Compound 39], with less than 100 nM; and `COc1cc2nccc(Oc3ccc(NC(=O)c4nn(C5CCCC5)cc4OCC(F)(F)F)nc3)c2cc1OC` [Compound 40], with less than 100 nM. With `COc1cc2nccc(Oc3ccc(NC(=O)c4nn(CC5CC5)cc4OCC(F)(F)F)nc3)c2cc1OC` [Compound 41] the figure was less than 100 nM. Turning to `COc1cc2nccc(Oc3ccc(NC(=O)c4nn(CC5CCC5)cc4OCC(F)(F)F)nc3)c2cc1OC` [Compound 42], the equilibrium dissociation constant (Kd) was less than 100 nM. Then `COc1cc2nccc(Oc3ccc(NC(=O)c4nn(CC5CCCCC5)cc4OCC(F)(F)F)nc3)c2cc1OC` [Compound 43], with less than 100 nM; and `COc1cc2nccc(Oc3ccc(NC(=O)c4nn(CC5CCOC5)cc4OCC(F)(F)F)nc3)c2cc1OC` (stereo not shown) [Compound 44], with less than 100 nM; and `COc1cc2nccc(Oc3ccc(NC(=O)c4nn(C)cc4OCC(F)(F)F)c(F)c3)c2cc1OC` [Compound 45], with less than 100 nM.

With `COc1cc2nccc(Oc3ccc(NC(=O)c4nn(CCO)cc4OCC(F)(F)F)c(F)c3)c2cc1OC` [Compound 46], the Kd was less than 100 nM. As to `COc1cc2nccc(Oc3ccc(NC(=O)c4nn(C5CCCC5)cc4OCC(F)(F)F)c(F)c3)c2cc1OC` [Compound 47], the equilibrium dissociation constant (Kd) was less than 100 nM. With `COc1cc2nccc(Oc3ccc(NC(=O)c4nn(CC(C)C)cc4OCC(F)(F)F)c(F)c3)c2cc1OC` [Compound 48] the figure was less than 100 nM; with `COCCn1cc(OCC(F)(F)F)c(C(=O)Nc2ccc(Oc3ccnc4cc(OC)c(OC)cc34)cc2F)n1` [Compound 49], less than 100 nM. As to `COc1cc2nccc(Oc3ccc(NC(=O)c4nn(C)cc4OCC(F)(F)F)cc3F)c2cc1OC` [Compound 50], the Kd is less than 100 nM. With `COc1cc2nccc(Oc3ccc(NC(=O)c4nn(CCO)cc4OCC(F)(F)F)cc3F)c2cc1OC` [Compound 51] the figure was less than 100 nM; with `COc1cc2nccc(Oc3ccc(NC(=O)c4nn(C5CCCC5)cc4OCC(F)(F)F)cc3F)c2cc1OC` [Compound 52], less than 100 nM; with `COc1cc2nccc(Oc3ccc(NC(=O)c4nn(CC(C)C)cc4OCC(F)(F)F)cc3F)c2cc1OC` [Compound 53], less than 100 nM.

`COCCn1cc(OCC(F)(F)F)c(C(=O)Nc2ccc(Oc3ccnc4cc(OC)c(OC)cc34)c(F)c2)n1` [Compound 54]: the dissociation constant Kd is less than 100 nM. Then `COc1cc2nccc(Oc3ccc(NC(=O)c4nn(C5CCOC5)cc4OCC(F)(F)F)cc3F)c2cc1OC` (stereo not shown) [Compound 55], with less than 100 nM; and `COc1cc2nccc(Oc3ccc(NC(=O)c4nn(CCO)cc4OCC(F)(F)F)cc3C)c2cc1OC` [Compound 56], with 100 to 500 nM. Then `COc1cc2nccc(Oc3ccc(NC(=O)c4nn(C5CCCC5)cc4OCC(F)(F)F)cc3C)c2cc1OC` [Compound 57], with less than 100 nM; and `COc1cc2nccc(Oc3ccc(NC(=O)c4nn(CC(C)C)cc4OCC(F)(F)F)cc3C)c2cc1OC` [Compound 58], with less than 100 nM. Then `COc1cc2nccc(Oc3ccc(NC(=O)c4nn(CCO)cc4OCC(F)(F)F)cc3)c2cc1OC` [Compound 59], with less than 100 nM; and `COc1cc2nccc(Oc3ccc(NC(=O)c4nn(C5CCCC5)cc4OCC(F)(F)F)cc3)c2cc1OC` [Compound 60], with less than 100 nM.

For `COCCn1cc(OCC(F)(F)F)c(C(=O)Nc2ccc(Oc3ccnc4cc(OC)c(OC)cc34)cc2)n1` [Compound 61], the equilibrium dissociation constant (Kd) is less than 100 nM. On to `COc1cc2nccc(Oc3ccc(NC(=O)c4nn(C5CCOC5)cc4OCC(F)(F)F)cc3)c2cc1OC` (stereo not shown) [Compound 62], for which the Kd was less than 100 nM. Then `COc1cc2nccc(Oc3ccc(NC(=O)c4nn(CC(C)N)cc4OCC(F)(F)F)nc3)c2cc1OC` (stereo not shown) [Compound 63], with less than 100 nM; and `COc1cc2nccc(Oc3ccc(NC(=O)c4nn(CC(C)(F)F)cc4OCC(F)(F)F)nc3)c2cc1OC` [Compound 64], with less than 100 nM; and `COc1cc2nccc(Oc3ccc(NC(=O)c4nn(CCOC5CCC5)cc4OCC(F)(F)F)nc3)c2cc1OC` [Compound 65], with less than 100 nM. Then `COc1cc2nccc(Oc3ccc(NC(=O)c4nn(C5COC5)cc4OCC(F)(F)F)nc3)c2cc1OC` [Compound 66], with less than 100 nM; and `COc1cc2nccc(Oc3ccc(NC(=O)c4nn(CCO)cc4OCC(F)(F)F)nc3)c2cc1OC` [Compound 67], with less than 100 nM. Then `COc1cc2nccc(Oc3ccc(NC(=O)c4nn(CCCN)cc4OCC(F)(F)F)nc3)c2cc1OC` [Compound 68], with less than 100 nM.
